Test results as given in PMC8620494, “Synthesis of Purine-Based Ionic Liquids and Their Applications” (Molecules, 2021).
Where two headings read alike, the source gives them in different places.

How the values were obtained:
Raphidocelis subcapitata = settings: for Acute hazard category according to European legislation: based on 96 h EC50 in mg∙L^−1; for EC50: 96 h incubation, microalgae yield, 95% confidence limits in parenthesis
Description: The microalgae ecotoxicity assays were conducted, as previously described in detail, using the microalgae Raphidocelis subcapitata, i.e., following the guidelines of OECD [38], and adapted to the use of 24-well microplates. […] The microalgae were exposed to a range of concentrations of each salt, and all the assays, including the MBL blank control, were conducted in triplicate. The microplates were incubated for 96 h, under controlled incubation conditions, as used for the inoculum. After that time, the microalgae yield in each treatment was calculated as the difference between the cell densities at the end and beginning of the test.

[1] = Description: Samples were quantified, as previously described, at 316 nm (see Figure S1). All assays were performed in triplicates. To verify the integrity of the IL, the liquid phase was analyzed by ^1H and ^13C NMR.
[2] = remark: listed apart in the source
From the text: Theobromine has relatively strong intermolecular hydrogen bonding between its carbonyl groups and strong π–π stacking interactions. In theophylline, the hydrogen between the two carbonyl groups is replaced by a methyl group, causing the previously mentioned interactions to be weaker. […] Adding alkyl groups to ILs usually lowers their solubility. […] The overall poor solubility of purines is connected to their inter-base hydrogen bonding. The insertion of the methyl groups replaces protons that would otherwise be available to form inter-base hydrogen bonds.

[3] = for Aqueous solubility enhancement (S/S0) of the salt relative to its free purine: S molar water-solubility of salt at 298 K, S0 of free purine from PubChem; for Molar water-solubility (S): pure water, 72 h, shake-flask; for Molar water-solubility (S) / pH saturated (pH of the saturated IL solution): (298 ± 1) K; for pH saturated (pH of the saturated IL solution): saturated aqueous solution
Description: IL solubility studies were performed using the isothermal shake-flask method, as reported in the literature. […] If needed, samples were centrifuged for 2 min at 12,000 rpm. Samples of the liquid phase were collected and diluted in distilled water, followed by the preparation of a calibration curve for each compound of interest. The amount of compound in the liquid phase was quantified using a UV–Vis Synergy HT microplate reader from BioTek (Winooski, VT, USA). […] All assays were performed in triplicate. The pH (±0.02) of the samples was determined by using a Mettler Toledo SevenMultiTMdual pH meter.

[4] = TGA, nitrogen, 2 K·min^−1, peak of the derivative
Description: The melting temperatures (Tm) were measured in a differential scanning calorimetry (DSC), using a Hitachi DSC7000X equipment at atmospheric pressure, with hermetically sealed aluminum crucibles and a constant flow of nitrogen. […] Each sample underwent three cycles of cooling and heating, at 5 K∙min^−1 and 2 K∙min^−1, respectively. The melting point of each compound was taken as the peak temperature. The determined melting points are estimated to have a 1 K uncertainty. […] Each sample was heated in an aluminia pan, under a nitrogen atmosphere, with a heating rate of 2 K·min^−1. The degradation temperature-associated uncertainty is estimated to be 0.01 K. Degradation temperature was taken as the peak temperature of the derivative.

[5] = cited from earlier work
[6] = IL solution 0.05 mol∙L-1 before addition of ferulic acid
[7] = IL solution 0.05 mol∙L-1 saturated with ferulic acid
[8] = IL solution 0.1 mol∙L-1 before addition of ferulic acid
[9] = IL solution 0.1 mol∙L-1 saturated with ferulic acid
[10] = IL solution 0.25 mol∙L-1 before addition of ferulic acid
[11] = IL solution 0.25 mol∙L-1 saturated with ferulic acid
[12] = IL solution 0.5 mol∙L-1 before addition of ferulic acid
[13] = IL solution 0.5 mol∙L-1 saturated with ferulic acid
[14] = IL solution 1.0 mol∙L-1 before addition of ferulic acid
[15] = IL solution 1.0 mol∙L-1 saturated with ferulic acid
[16] = IL solution 1.5 mol∙L-1 before addition of ferulic acid
[17] = IL solution 1.5 mol∙L-1 saturated with ferulic acid

| Compound | Initial solution pH [1, 6] | Saturated solution pH [1, 7] | Initial solution pH [1, 8] | Saturated solution pH [1, 9] | Initial solution pH [1, 10] | Saturated solution pH [1, 11] | Initial solution pH [1, 12] | Saturated solution pH [1, 13] | Molar water-solubility (S) [3] [mM] | pH saturated (pH of the saturated IL solution) [3] | Decomposition temperature (Td) [4] [K] | other results |
| --- | --- | --- | --- | --- | --- | --- | --- | --- | --- | --- | --- | --- |
| CCCC[N+](CCCC)(CCCC)CCCC.[Cl-] [[N4444]Cl, tetrabutylammonium chloride, reference compound] | 5.71 | 3.29 | 6.31 | 2.89 | 5.62 | 2.63 | 4.26 | 2.36 | – | – | – | Acute hazard category according to European legislation (Raphidocelis subcapitata): acute 2 (acute 2 category (1 < EC50 < 10 mg∙L^−1)); Initial solution pH [1, 14]: 4.04; Saturated solution pH [1, 15]: 2.10; Initial solution pH [1, 16]: 4.20; Saturated solution pH [1, 17]: 2.26; pH initial ([2]; initial aqueous solution of [N4444]Cl 1.0 mol∙L-1): 4.23 |
| CCCC[N+](CCCC)(CCCC)CCCC.Cn1cnc2c1c(=O)[n-]c(=O)n2C [[N4444][Theob], Tetrabutylammonium theobrominate] | 10.85 | 5.36 | 11.56 | 5.54 | 11.80 | 8.51 | 11.98 | 9.62 | 1590 ± 70 | 12.76 | 457 ± 1 | Aqueous solubility enhancement (S/S0) of the salt relative to its free purine [3]: 870 fold; S/S0 of ferulic acid recalculated with S0 at a similar pH to that of the sample ([1]; all tested IL concentrations, 303 K): < 1 |
| CCCC[N+](CCCC)(CCCC)CCCC.Cn1c(=O)c2[n-]cnc2n(C)c1=O [[N4444][Theop], Tetrabutylammonium theophyllinate] | 8.91 | 5.30 | 10.52 | 6.44 | 10.81 | 6.56 | 10.78 | 7.65 | 2200 ± 100 | 10.89 | 486 ± 1 | Aqueous solubility enhancement (S/S0) of the salt relative to its free purine [3]: 53 fold; Initial solution pH [1, 14]: 11.06; Saturated solution pH [1, 15]: 8.63; Initial solution pH [1, 16]: 10.68; Saturated solution pH [1, 17]: 9.95 |
| CCCC[N+](CCCC)(CCCC)CCCC.O=c1[n-]c2[nH]c(=O)[nH]c2c(=O)[nH]1 [[N4444][Ur], Tetrabutylammonium urate] | – | – | – | – | – | – | – | – | 96 ± 7 | 8.31 | 505 ± 1 | EC50 (Raphidocelis subcapitata): 2.7 µg/mL |
| CCCC[N+](CCCC)(CCCC)CCCC.O=c1[nH]c(=O)c2[n-]cnc2[nH]1 [[N4444][Xan], Tetrabutylammonium xanthinate] | – | – | – | – | – | – | – | – | 170 ± 10 | 10.14 | 495 ± 1 | EC50 (Raphidocelis subcapitata): 0.8 µg/mL; Acute hazard category according to European legislation (Raphidocelis subcapitata): acute 1 (acute 1 category (EC50 < 1 mg∙L^−1)) |
| O.O=c1[nH]c2nc([O-])nc([O-])c2[nH]1.[K+].[K+] [potassium urate] | – | – | – | – | – | – | – | – | – | – | – | Water-solubility of other urate salts [5]: 12.06 mM |
| Cn1c(=O)c2[n-]cnc2n(C)c1=O.[Na+] [sodium theophyllinate] | – | – | – | – | – | – | – | – | – | – | – | Molar solubility of sodium theophyllinate in pure water (S0) [2]: 260 ± 10 mM; pH saturated ([2]; [N4444]Cl 1.0 mol∙L-1 solution saturated with sodium theophyllinate): 10.55 |
| O=c1[nH]c(=O)c2[nH]c([O-])nc2[nH]1.[Na+] [sodium urate] | – | – | – | – | – | – | – | – | – | – | – | Water-solubility of other urate salts [5]: 6.76 mM |
| O=c1[nH]c(=O)c2[nH]c(=O)[nH]c2[nH]1 [uric acid] | – | – | – | – | – | – | – | – | – | – | – | Molar water-solubility of the free purine (S0) ([5]; (293 ± 1) K, ref PubChem [53]): 0.357 mM |
